# Earlier results as cited in patent publication US20050065183A1 (priority 2003, published 2005).
# Tested on: muscarinic
smiles,measurement,value
"CC(C)(C(=O)O)c1ccc(C(O)CCCN2CCC(C(O)(c3ccccc3)c3ccccc3)CC2)cc1 (stereo not drawn) [Fexofenadine, 4-[4-[4-(hydroxydiphenylmethyl)-1-piperidinyl]-1-hydroxybutyl]-α,α-dimethylbenzeneacetic acid]",antimuscarinic activity,weak
